Measured values taken from patent US7429670B2 (The Trustees of Columbia University in the City of New York, priority 2003, dated 2008).

target: T1, human homomeric α1 GlyR (Homo sapiens, UniProt P23415); assay: Functional glycine receptor assay (FLIPR Membrane Potential Assay); type: cell-based; design: antagonist activity at GlyR (in words): dose or concentration left out as unconfirmed; settings: 30 uM concentration of test compound
T1 construct: expressed in transfected cells
T1 sequence (P23415 29-457): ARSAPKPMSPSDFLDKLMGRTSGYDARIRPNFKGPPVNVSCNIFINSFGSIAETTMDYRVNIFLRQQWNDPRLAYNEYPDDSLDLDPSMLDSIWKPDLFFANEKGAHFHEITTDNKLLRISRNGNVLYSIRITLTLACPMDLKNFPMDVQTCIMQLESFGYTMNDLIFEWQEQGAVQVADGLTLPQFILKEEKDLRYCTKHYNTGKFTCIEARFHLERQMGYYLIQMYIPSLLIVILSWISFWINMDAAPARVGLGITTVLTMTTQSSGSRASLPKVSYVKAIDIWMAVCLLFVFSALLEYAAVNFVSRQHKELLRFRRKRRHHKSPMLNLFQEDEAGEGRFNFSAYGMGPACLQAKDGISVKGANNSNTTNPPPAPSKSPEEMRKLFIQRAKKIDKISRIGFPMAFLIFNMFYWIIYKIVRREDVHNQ

Row | Substance | inhibition of glycine responses
1 | 10-Benzyloxy-isoGC-6-benzoate [Compound 17] | 39%

same assay, conditions: 100 μM test compound; 100 μM glycine-induced response; α1 GlyR-HEK293 cells; Table 2

Row | Substance | % inhibition
2 | 1-Methylcarbamoyloxy-10-(4-methoxy-benzyloxy)-GC [Compound 49] | NI (Inhibition below 20% is characterized as no inhibition (NI))
3 | 1-(Piperidine-carbonyloxy)-10-benzyloxy-GC [Compound 42] | 31%
4 | 1-(Morpholine-4-carbonyloxy)-10-(4-methoxy-benzyloxy)-GC [Compound 51] | NI (Inhibition below 20% is characterized as no inhibition (NI))
5 | 7-tert-Butylcarbamoyloxy-10-(4-methoxy-benzyloxy)-GC [Compound 45] | 39%
6 | 1-(Piperidine-carbonyloxy)-10-(4-methoxy-benzyloxy)-GC [Compound 52] | NI (Inhibition below 20% is characterized as no inhibition (NI))
7 | 1-tert-Butylcarbamoyloxy-10-(4-methoxy-benzyloxy)-GC [Compound 50] | 33%
8 | 1-Methylcarbamoyloxy-10-benzyloxy-GC [Compound 39] | NI (Inhibition below 20% is characterized as no inhibition (NI))
9 | 1-(Morpholine-4-carbonyloxy)-10-benzyloxy-GC [Compound 41] | NI (Inhibition below 20% is characterized as no inhibition (NI))
10 | 7-tert-Butylcarbamoyloxy-10-benzyloxy-GC [Compound 35] | 29%
11 | 7-(Morpholine-4-carbonyloxy)-10-benzyloxy-GC [Compound 36] | NI (Inhibition below 20% is characterized as no inhibition (NI))
12 | 7-Methylcarbamoyloxy-10-benzyloxy-GC [Compound 34] | NI (Inhibition below 20% is characterized as no inhibition (NI))
13 | 7-(Piperidine-carbonyloxy)-10-(4-methoxy-benzyloxy)-GC [Compound 47] | 29%
14 | 7-Methylcarbamoyloxy-10-(4-methoxy-benzyloxy)-GC [Compound 44] | NI (Inhibition below 20% is characterized as no inhibition (NI))
15 | 7-(Morpholine-4-carbonyloxy)-10-(4-methoxy-benzyloxy)-GC [Compound 46] | NI (Inhibition below 20% is characterized as no inhibition (NI))
16 | 1-tert-Butylcarbamoyloxy-10-benzyloxy-GC [Compound 40] | 42%
17 | 7-(Piperidine-carbonyloxy)-10-benzyloxy-GC [Compound 37] | NI (Inhibition below 20% is characterized as no inhibition (NI))

same assay, conditions: 100 μM test compound; 100 μM glycine-induced response; α1 GlyR-HEK293 cells; Table 3

Row | Substance | % inhibition
18 | 7-Methylcarbamoyloxy-GC [Compound 53] | NI (Inhibition below 20% is characterized as no inhibition (NI))
19 | 1-tert-Butylcarbamoyloxy-GC [Compound 58] | 71%
20 | 1-Methylcarbamoyloxy-GC [Compound 57] | 76%
21 | 7-tert-Butylcarbamoyloxy-GC [Compound 54] | NI (Inhibition below 20% is characterized as no inhibition (NI))
22 | 1-(Morpholine-4-carbonyloxy)-GC [Compound 59] | NI (Inhibition below 20% is characterized as no inhibition (NI))
23 | 7-(Morpholine-4-carbonyloxy)-GC [Compound 55] | 44%
24 | 1-(Piperidine-carbonyloxy)-GC [Compound 60] | 33%
25 | 7-(Piperidine-carbonyloxy)-GC [Compound 56] | 34%

same assay, conditions: 100 μM test compound; 100 μM glycine-induced response; α1 GlyR-HEK293 cells; Table 4

Row | Substance | % inhibition
26 | 10-(2-Pyridinyl-methoxy)-GC-7-benzoate [Compound 29] | 51%
27 | 10-Benzyloxy-GC [Compound 16] | 59%
28 | 10-(2-Pyridinyl-methoxy)-GC [Compound 25] | 75%
29 | 10-Benzyloxy-GC-1-benzoate [Compound 23] | 60%
30 | 10-(4-Methoxy-benzyloxy)-GC [Compound 24] | 52%
31 | GC-7-benzoate [Compound 30] | NI (Inhibition below 20% is characterized as no inhibition (NI))
32 | 10-(4-Methoxy-benzyloxy)-GC-1-benzoate [Compound 28] | NI (Inhibition below 20% is characterized as no inhibition (NI))
33 | 10-(4-Methoxy-benzyloxy)-GC-7-benzoate [Compound 26] | 35%
34 | GC-1-benzoate [Compound 32] | NI (Inhibition below 20% is characterized as no inhibition (NI))
35 | 10-Benzyloxy-GC-7-benzoate [Compound 21] | 45%

same assay, conditions: 100 μM test compound; response induced by 100 μM glycine; α1 GlyR-HEK293 cells; Table 5

Row | Substance | % inhibition
36 | IsoGC-6-benzoate [Compound 31] | 63%
37 | 10-Benzyloxy-isoGC-6-benzoate [Compound 17] | 90%
38 | 10-Benzyloxy-isoGC-1,6-bisbenzoate [Compound 22] | 42%
39 | 10-(4-Methoxy-benzyloxy)-isoGC-6-benzoate [Compound 27] | 49%
40 | 10-(4-Methoxy-benzyloxy)-isoGC-1,6-bisacetate [Compound 20] | 36%
41 | 10-Benzyloxy-isoGC-1,6-bisacetate [Compound 19] | 21%

same assay, conditions: derivatives as printed

Row | Substance | antagonist activity at GlyR (in words)
42 | GC-7-benzoate [Compound 30] | complete loss in activity
43 | GC-1-benzoate [Compound 32] | complete loss in activity

same assay, conditions: derivatives at a concentration of 100 mM; 100 mM glycine

Row | Substance | inhibition of the glycine responses
44 | 1-tert-Butylcarbamoyloxy-GC [Compound 58] | ca. 70%
45 | 10-Benzyloxy-isoGC-6-benzoate [Compound 17] | 90%
46 | 1-Methylcarbamoyloxy-GC [Compound 57] | ca. 70%
47 | 10-(2-Pyridinyl-methoxy)-GC [Compound 25] | 75%
